Source: patent publication US12606528B2, “Methods and materials for inhibiting NF-kB activity” (University of Pittsburgh - Of the Commonwealth System of …, priority 2019, dated 2026)
Like-named read-outs stand apart in the source and are kept apart here.

How the values were obtained:
TNF release = assay: TNF assay: TNF release from LPS-stimulated human PBMCs (TNF ELISA); type: cell-based; details: PBMC, read-out: IC50 (TNF assay)
In short: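 Human PBMCs at 10k/well pretreated with compound dilutions 2 h, then stimulated with LPS (10 ng/mL) for 18 h. TNF in supernatants quantified by ELISA; IC50 for inhibition of TNF release fitted from concentration–response.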

NF-κB = NF-κB assay: THP1-NF-κB-LUC cells, LPS-stimulated secreted luciferase; type: cell-based; details: THP1-NF-κB-LUC cells, read-out: IC50 (NF-κB assay)
In short: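 THP1-NF-κB-LUC cells (25k/well) were pretreated with compounds for 2 h, then stimulated with LPS (10 ng/mL) for 18 h. Secreted luciferase was measured and normalized to vehicle, and IC50 was fitted from the concentration series.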

[1] = LPS-stimulated human PBMCs, TNF ELISA
[2] = human PBMCs, compounds 2 hours before LPS (10 ng/ml) for 18 hours, supernatant TNF ELISA
[3] = compounds 2 hours before LPS (10 ng/mL) for 18 hours, secreted luciferase

## Fc1ccc(-c2nc3cc(-c4ncco4)ccc3nc2C(F)(F)F)cc1 [BC19115]
TNF release; [1]
  IC50: > 10000 nM
NF-κB; LPS-stimulated
  IC50: > 10000 nM

## CC1Oc2c(cc(Br)cc2S(=O)(=O)Nc2ccc(F)cc2Cl)NC1=O (centres unmarked) [BC19289]
TNF release; [2]
  IC50: > 10000 nM
NF-κB; [3]
  IC50: < 100 nM

## O=S(=O)(NCCCO)c1ccc2nc(-c3ccc(F)cc3)c(-c3ccc(F)cc3)nc2c1 [BC19509]
TNF release; [1]
  IC50: > 10000 nM
NF-κB; LPS-stimulated
  IC50: < 100 nM

## CCCS(=O)(=O)c1oc(-c2ccc(C)cc2)nc1S(=O)(=O)c1ccc(Br)cc1 [BC19130]
TNF release; [1]
  IC50: 100 to 1000 nM
NF-κB; LPS-stimulated
  IC50: 100 to 1000 nM

## N#Cc1ccc2nc(-c3ccc(F)cc3)c(-c3ccc(F)cc3)nc2n1 [BC19512]
TNF release; [1]
  IC50: > 10000 nM
NF-κB; LPS-stimulated
  IC50: 100 to 1000 nM

## CCC1Oc2c(cc(Br)cc2S(=O)(=O)NC2CCC(O)CC2)NC1=O (centres unmarked) [BC19378]
TNF release; [2]
  IC50: > 10000 nM
NF-κB; [3]
  IC50: > 10000 nM

## O=S(=O)(c1ccc(F)c(F)c1)c1nc(-c2ccccc2)oc1S(=O)(=O)C1CCCCC1 [BC19277]
TNF release; [1]
  IC50: 100 to 1000 nM
NF-κB; LPS-stimulated
  IC50: < 100 nM

## O=c1[nH]ccc2cc([S+]([O-])c3cccc(F)c3)ccc12 (centres unmarked) [BC19519]
TNF release; [2]
  IC50: > 10000 nM
NF-κB; [3]
  IC50: > 10000 nM

## CCC1Oc2c(cc(Br)cc2S(=O)(=O)NCc2ccccc2)NC1=O (centres unmarked) [BC19230]
TNF release; [2]
  IC50: > 10000 nM
NF-κB; [3]
  IC50: < 100 nM

## Fc1ccc(-c2nc3ccc(-c4nnn[nH]4)cc3nc2C(F)(F)F)cc1 [BC19153]
TNF release; [1]
  IC50: > 10000 nM
NF-κB; LPS-stimulated
  IC50: > 10000 nM

## CC(C)S(=O)(=O)c1sc(-c2cccc(F)c2)nc1S(=O)(=O)c1ccc(Cl)cc1 [BC19476]
TNF release; [1]
  IC50: > 10000 nM
NF-κB; LPS-stimulated
  IC50: > 10000 nM

## Fc1ccc(-c2nc3cc(-c4nnc[nH]4)ccc3nc2C(F)(F)F)cc1 [BC19111]
TNF release; [1]
  IC50: > 10000 nM
NF-κB; LPS-stimulated
  IC50: > 10000 nM

## O=c1c(S(=O)(=O)c2ccc(F)c(F)c2)c(O)[nH]c2ncccc12 [BC19256]
TNF release; [2]
  IC50: > 10000 nM
NF-κB; [3]
  IC50: 1000 to 10000 nM

## O=C1COc2c(cc(Br)cc2S(=O)(=O)Nc2ccc(F)c(F)c2)N1 [BC19177]
TNF release; [2]
  IC50: > 10000 nM
NF-κB; [3]
  IC50: < 100 nM

## Cc1ccc(NS(=O)(=O)c2cc(Cl)cc3c2OC(C)C(=O)N3)cc1F (centres unmarked) [BC19701]
TNF release; [2]
  IC50: > 10000 nM
NF-κB; [3]
  IC50: < 100 nM

## CC1Oc2c(cc(Br)cc2S(=O)(=O)NCCc2ccc(OC(F)(F)F)cc2)NC1=O (centres unmarked) [BC19364]
TNF release; [2]
  IC50: > 10000 nM
NF-κB; [3]
  IC50: > 10000 nM

## O=S(=O)(NCc1ccncc1)c1ccc2nc(-c3ccc(F)cc3)c(-c3ccc(F)cc3)nc2c1 [BC19558]
TNF release; [1]
  IC50: > 10000 nM
NF-κB; LPS-stimulated
  IC50: 100 to 1000 nM

## Cc1c(Cl)cc2c(c1S(=O)(=O)Nc1ccc(OC(F)(F)F)cc1)OCC(=O)N2 [BC19490]
TNF release; [2]
  IC50: > 10000 nM
NF-κB; [3]
  IC50: < 100 nM

## CNC(=O)N1c2cc(S(=O)(=O)N3CCCC3)ccc2NC(=O)C1C (centres unmarked) [BC19236]
TNF release; [1]
  IC50: > 10000 nM
NF-κB; LPS-stimulated
  IC50: > 10000 nM

## O=C1CCOc2cc(S(=O)(=O)Nc3ccc(OC(F)(F)F)cc3)c(Br)cc2N1 [BC19652]
TNF release; [1]
  IC50: > 10000 nM
NF-κB; LPS-stimulated
  IC50: 1000 to 10000 nM

## CC(=O)N1CC(=O)Nc2ccc(S(=O)(=O)N3CCCC3)cc21 [BC19295]
TNF release; [1]
  IC50: > 10000 nM
NF-κB; LPS-stimulated
  IC50: < 100 nM

## C/N=C(\c1ccc2nc(-c3ccc(F)cc3)c(-c3ccc(F)cc3)nc2c1)N1CCN(C)CC1 [BC19668]
TNF release; [1]
  IC50: > 10000 nM
NF-κB; LPS-stimulated
  IC50: 100 to 1000 nM

## Fc1ccc(-c2nc3cc(-c4nnn[nH]4)ccc3nc2-c2cccs2)cc1 [BC19186]
TNF release; [1]
  IC50: > 10000 nM
NF-κB; LPS-stimulated
  IC50: 1000 to 10000 nM

## CC(C)CC1Oc2cc(S(=O)(=O)Nc3ccc(F)cc3F)c(Br)cc2NC1=O (centres unmarked) [BC19770]
TNF release; [2]
  IC50: > 10000 nM
NF-κB; [3]
  IC50: 100 to 1000 nM

## O=c1[nH]ccc2cc(S(=O)(=O)c3ccccc3)ccc12 [BC19579]
TNF release; [2]
  IC50: > 10000 nM
NF-κB; [3]
  IC50: > 10000 nM

## O=S(=O)(c1cccc(F)c1)c1nc(-c2ccccc2)oc1S(=O)(=O)C1CCCCC1 [BC19328]
TNF release; [1]
  IC50: 100 to 1000 nM
NF-κB; LPS-stimulated
  IC50: < 100 nM

## CCc1cccc(NS(=O)(=O)c2cc3c(cc2Cl)NC(=O)C(CC)O3)c1 (centres unmarked) [BC19749]
TNF release; [2]
  IC50: > 10000 nM
NF-κB; [3]
  IC50: 100 to 1000 nM

## Cc1ccc(C)c2c(=O)c(S(=O)(=O)c3ccc(F)c(F)c3)c[nH]c12 [BC19198]
TNF release; [2]
  IC50: > 10000 nM
NF-κB; [3]
  IC50: 1000 to 10000 nM

## O=C(NCc1ccccn1)Nc1ccc2nc(-c3ccc(F)cc3)c(-c3ccc(F)cc3)nc2c1 [BC19570]
TNF release; [1]
  IC50: > 10000 nM
NF-κB; LPS-stimulated
  IC50: 100 to 1000 nM

## CC1Oc2c(cc(Cl)cc2S(=O)(=O)Nc2ccc(F)cc2)NC1=O (centres unmarked) [BC19722]
TNF release; [2]
  IC50: 1000 to 10000 nM
NF-κB; [3]
  IC50: < 100 nM

## Cc1ccc(-c2nc(S(=O)(=O)c3ccc(F)cc3)c(S(C)(=O)=O)o2)cc1 [BC19147]
TNF release; [1]
  IC50: 100 to 1000 nM
NF-κB; LPS-stimulated
  IC50: 100 to 1000 nM

## CC(C)C[S+]([O-])c1oc(-c2cccc(F)c2)nc1S(=O)(=O)c1ccc(Cl)cc1 (centres unmarked) [BC19347]
TNF release; [1]
  IC50: < 100 nM
NF-κB; LPS-stimulated
  IC50: < 100 nM

## CS(=O)(=O)c1oc(-c2ccccc2)nc1S(=O)(=O)c1ccc(Cl)cc1 [BC19329]
TNF release; [1]
  IC50: < 100 nM
NF-κB; LPS-stimulated
  IC50: < 100 nM

## CCC1Oc2c(cc(Cl)cc2S(=O)(=O)Nc2ccc(C)cc2)NC1=O (centres unmarked) [BC19754]
TNF release; [2]
  IC50: 1000 to 10000 nM
NF-κB; [3]
  IC50: < 100 nM
